Data: PubChem BioAssay (NCI)
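All cell lines were grown in 96-well plates and treated with compound for 48 hours. GI50 marks 50% less growth. TGI: concentration producing complete growth inhibition.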

Legend:
Test in all cases: growth of human tumour cells (NCI), 48 h
[1] = test system: 786-0 renal
[2] = test system: A498 renal
[3] = test system: A549 NSCLC
[4] = test system: ACHN renal
[5] = test system: BT-549 breast
[6] = test system: CAKI-1 renal
[7] = test system: CCRF-CEM leukemia
[8] = test system: COLO 205 colon
[9] = test system: DU-145 prostate
[10] = test system: EKVX NSCLC
[11] = test system: HCC-2998 colon
[12] = test system: HCT-116 colon
[13] = test system: HCT-15 colon
[14] = test system: HL-60(TB) leukemia
[15] = test system: HOP-62 NSCLC
[16] = test system: HOP-92 NSCLC
[17] = test system: HS 578T breast
[18] = test system: HT29 colon
[19] = test system: IGROV1 ovarian
[20] = test system: K-562 leukemia
[21] = test system: KM12 colon
[22] = test system: LOX IMVI melanoma
[23] = test system: M14 melanoma
[24] = test system: MALME-3M melanoma
[25] = test system: MCF7 breast
[26] = test system: MDA-MB-231 breast
[27] = test system: MDA-MB-435
[28] = test system: MOLT-4 leukemia
[29] = test system: NCI-H226 lung
[30] = test system: NCI-H23 lung
[31] = test system: NCI-H460 lung
[32] = test system: NCI-H522 lung
[33] = test system: NCI/ADR-RES ovarian
[34] = test system: OVCAR-3 ovarian
[35] = test system: OVCAR-4 ovarian
[36] = test system: OVCAR-5 ovarian
[37] = test system: OVCAR-8 ovarian
[38] = test system: PC-3 prostate
[39] = test system: RPMI-8226 leukemia
[40] = test system: RXF 393 renal
[41] = test system: SF-268 CNS
[42] = test system: SF-295 CNS
[43] = test system: SF-539 CNS
[44] = test system: SK-MEL-2 melanoma
[45] = test system: SK-MEL-28 melanoma
[46] = test system: SK-MEL-5 melanoma
[47] = test system: SK-OV-3 ovarian
[48] = test system: SN12C renal
[49] = test system: SNB-19 CNS
[50] = test system: SNB-75 CNS
[51] = test system: SR leukemia
[52] = test system: SW-620 colon
[53] = test system: T-47D breast
[54] = test system: TK-10 renal
[55] = test system: U251 CNS
[56] = test system: UACC-257 melanoma
[57] = test system: UACC-62 melanoma
[58] = test system: UO-31 renal

SMILES: COC(=O)c1c2c(c[n+]([O-])c1C)C(=O)C=C(NCc1ccccc1)C2=O
- GI50 [1]: 295 nM
- TGI [1]: 1220 nM
- GI50 [2]: 210 nM
- TGI [2]: 1050 nM
- GI50 [3]: 227 nM
- TGI [3]: 564 nM
- GI50 [4]: 210 nM
- TGI [4]: 579 nM
- GI50 [5]: 169 nM
- TGI [5]: 319 nM
- GI50 [6]: 289 nM
- TGI [6]: 1120 nM
- GI50 [7]: 264 nM
- TGI [7]: 955 nM
- GI50 [8]: 151 nM
- TGI [8]: 372 nM
- GI50 [9]: 172 nM
- TGI [9]: 316 nM
- GI50 [10]: 205 nM
- TGI [10]: 507 nM
- GI50 [11]: 213 nM
- TGI [11]: 492 nM
- GI50 [12]: 189 nM
- TGI [12]: 586 nM
- GI50 [13]: 151 nM
- TGI [13]: 350 nM
- GI50 [14]: 174 nM
- TGI [14]: 445 nM
- GI50 [15]: 209 nM
- TGI [15]: 590 nM
- GI50 [16]: 287 nM
- TGI [16]: 822 nM
- GI50 [17]: 263 nM
- TGI [17]: 710 nM
- GI50 [18]: 211 nM
- TGI [18]: 1420 nM
- GI50 [19]: 167 nM
- TGI [19]: 389 nM
- GI50 [20]: 192 nM
- TGI [20]: 1860 nM
- GI50 [21]: 222 nM
- TGI [21]: 785 nM
- GI50 [22]: 175 nM
- TGI [22]: 451 nM
- GI50 [23]: 161 nM
- TGI [23]: 315 nM
- GI50 [24]: 42.3 nM
- TGI [24]: 153 nM
- GI50 [25]: 149 nM
- TGI [25]: 361 nM
- GI50 [26]: 200 nM
- TGI [26]: 618 nM
- GI50 [27]: 125 nM
- TGI [27]: 255 nM
- GI50 [28]: 203 nM
- TGI [28]: 497 nM
- GI50 [29]: 338 nM
- TGI [29]: 1490 nM
- GI50 [30]: 169 nM
- TGI [30]: 421 nM
- GI50 [31]: 215 nM
- TGI [31]: 476 nM
- GI50 [32]: 189 nM
- TGI [32]: 509 nM
- GI50 [33]: 237 nM
- TGI [33]: 798 nM
- GI50 [34]: 41.3 nM
- TGI [34]: 209 nM
- GI50 [35]: 90.4 nM
- TGI [35]: 225 nM
- GI50 [36]: 192 nM
- TGI [36]: 390 nM
- GI50 [37]: 220 nM
- TGI [37]: 787 nM
- GI50 [38]: 208 nM
- TGI [38]: 996 nM
- GI50 [39]: 258 nM
- TGI [39]: 843 nM
- GI50 [40]: 197 nM
- TGI [40]: 521 nM
- GI50 [41]: 263 nM
- TGI [41]: 929 nM
- GI50 [42]: 154 nM
- TGI [42]: 298 nM
- GI50 [43]: 182 nM
- TGI [43]: 353 nM
- GI50 [44]: 171 nM
- TGI [44]: 363 nM
- GI50 [45]: 245 nM
- TGI [45]: 554 nM
- GI50 [46]: 140 nM
- TGI [46]: 274 nM
- GI50 [47]: 425 nM
- TGI [47]: 1600 nM
- GI50 [48]: 156 nM
- TGI [48]: 298 nM
- GI50 [49]: 281 nM
- TGI [49]: 954 nM
- GI50 [50]: 166 nM
- TGI [50]: 309 nM
- GI50 [51]: 204 nM
- GI50 [52]: 258 nM
- TGI [52]: 727 nM
- GI50 [53]: 197 nM
- TGI [53]: 653 nM
- GI50 [54]: 690 nM
- TGI [54]: 2090 nM
- GI50 [55]: 255 nM
- TGI [55]: 787 nM
- GI50 [56]: 148 nM
- TGI [56]: 323 nM
- GI50 [57]: 154 nM
- TGI [57]: 304 nM
- GI50 [58]: 183 nM
- TGI [58]: 477 nM
